Test results: patent US20160135455A1, “SAFENED HERBICIDAL COMPOSITIONS COMPRISING PYRIDINE CARBOXYLIC ACIDS” (Dow AgroSciences LLC, priority 2014, published 2016)
Like-named read-outs stand apart in the source and are kept apart here.

Columns and labels:
Format in all cases: in vivo
[1] = test system: velvetleaf (ABUTH, Abutilon theophrasti); assay: Postemergence greenhouse trial, herbicidal efficacy on velvetleaf; settings: post-emergence, 528 h, applied alone at 35 g/ha, postemergence
Protocol: (§1) Seeds of the desired test plant species were planted in Sun Gro MetroMix® 306 planting mixture, which typically has a pH of 6.0 to 6.8 and an organic matter content of about 30 percent, in plastic pots with a surface area of 103.2 square centimeters (cm^2). When required to ensure good germination and healthy plants, a fungicide treatment and/or other chemical or physical treatment was applied. The plants were grown for 7-36 days (d) in a greenhouse with an approximate 14-hour (h) photoperiod which was maintained at about 23° C. during the day and 22° C. during the night. Nutrients and water were added on a regular basis and supplemental lighting was provided with overhead metal halide 1000-Watt lamps as necessary. The plants were employed for testing when they reached the second or third true leaf stage.
(§2) Weighed amounts of technical material were dissolved in a volume of 97:3 volume per volume (v/v) acetone/dimethyl sulfoxide (DMSO) to stock solutions. […] The concentrated stock solutions were diluted with an aqueous mixture of 1.5% v/v of Agri-dex crop oil concentrate to provide the appropriate application rates. Compound requirements are based upon a 12 milliliter (mL) application volume at a rate of 187 liters per hectare (L/ha). Stocks solutions of the safeners were prepared following the same procedure. Spray solutions of the safeners and experimental compound mixtures were prepared by adding the stock solutions to the appropriate amount of dilution solution to form a 12 mL spray solution in two-way combinations. Formulated compounds were applied to the plant material with an overhead Mandel track sprayer equipped with 8002E nozzles calibrated to deliver 187 L/ha over an application area of 0.503 square meters (m^2) at a spray height of 18 inches (43 centimeters (cm)) above average plant canopy. Control plants were sprayed in the same manner with the solvent blank. All herbicide application (component a) rates are in g ae/ha and all safener (component b) rates are in g ai/ha.
(§3) The treated plants and control plants were placed in a greenhouse as described above and watered by sub-irrigation to prevent wash-off of the test compounds. After 20-22 d, the condition of the test plants as compared with that of the control plants was determined visually and scored on a scale of 0 to 100 percent where 0 corresponds to no injury and 100 corresponds to complete kill. The condition of the test plants was compared with that of the control plants as determined visually and scored on a scale of 0 to 100 percent, where 0 corresponds to no injury and 100 corresponds to complete kill. Colby's equation was used to determine the herbicidal effects expected from the mixtures.

[2] = test system: pigweed (AMARE, Amaranthus retroflexus); assay: Postemergence greenhouse trial, herbicidal efficacy on pigweed; settings: post-emergence, 528 h, applied alone at 35 g/ha, postemergence
Protocol: as §1, §2, §3

[3] = test system: winter rape (BRSNW, Brassica napus); assay: Postemergence greenhouse trial, herbicidal efficacy on winter rape; settings: post-emergence, 528 h, applied alone at 35 g/ha, postemergence
Protocol: as §1, §2, §3

[4] = test system: lambsquarters (CHEAL, Chenopodium album); assay: Postemergence greenhouse trial, herbicidal efficacy on lambsquarters; settings: post-emergence, 528 h, applied alone at 35 g/ha, postemergence
Protocol: as §1, §2, §3

[5] = test system: thistle (CIRAR, Cirsium arvense); assay: Postemergence greenhouse trial, herbicidal efficacy on thistle; settings: post-emergence, 528 h, applied alone at 35 g/ha, postemergence
Protocol: as §1, §2, §3

[6] = test system: poinsettia (EPHHL, Euphorbia heterophylla); assay: Postemergence greenhouse trial, herbicidal efficacy on poinsettia; settings: applied alone at 35 g/ha, postemergence; for pest or weed control at 35 g/ha: Euphorbia heterophylla, post-emergence, 528 h, rated after 20-22 d, read-out: % visual injury, Obs, EPHHL; for Obs, % visual injury, EPHHL: scored 20-22 d
Protocol: as §1, §2, §3

[7] = test system: wild buckwheat (POLCO, Polygonum convolvulus); assay: Postemergence greenhouse trial, herbicidal efficacy on wild buckwheat; settings: Fallopia convolvulus, post-emergence, 528 h, applied alone at 35 g/ha, postemergence
Protocol: as §1, §2, §3

[8] = test system: chickweed (STEME, Stellaria media); assay: Postemergence greenhouse trial, herbicidal efficacy on chickweed; settings: post-emergence, 528 h, applied alone at 35 g/ha, postemergence
Protocol: as §1, §2, §3

[9] = test system: wild pansy (VIOTR, Viola tricolor); assay: Postemergence greenhouse trial, herbicidal efficacy on wild pansy; settings: applied alone at 35 g/ha, postemergence; for pest or weed control at 35 g/ha: Viola tricolor, post-emergence, 528 h, scored 20-22 d, read-out: Obs, % visual injury, VIOTR; for % visual injury, Obs, VIOTR: rated after 20-22 d
Protocol: as §1, §2, §3

[10] = test system: sorghum (SORVU, Sorghum bicolor); assay: Postemergence greenhouse trial, herbicidal efficacy on sorghum; settings: applied alone at 35 g/ha; for Obs, % visual injury, SORVU: scored 20-22 d; for % visual injury, Obs, SORVU: rated after 20-22 d
Protocol: as §1, §2, §3

[11] = test system: wheat (TRZAS), Triticum aestivum (spring wheat); assay: Postemergence greenhouse trial, crop injury (phytotoxicity/safening) on wheat; settings: applied alone at 35 g/ha, scored 20-22 d, 0 = no injury, 100 = complete kill
Protocol: as §1, §2, §3
(§4) The safener fenchlorazole-ethyl was combined with compound 1, compound 2, compound 3, compound 4, compound 5, and compound 6, and applied to wheat (TRZAS), and the phytotoxicity of the herbicidal compositions was measured. In addition, the efficacy of the herbicidal composition on velvetleaf (ABUTH, Abutilon theophrasti), pigweed (AMARE, Amaranthus retroflexus), winter rape (BRSNW, Brassica napus), lambsquarters (CHEAL, Chenopodium album), thistle (CIRAR, Cirsium arvense), nutsedge (CYPES, Cyperus esculentus), poinsettia (EPHHL, Euphorbia heterophylla), wild buckwheat (POLCO, Polygonum convolvulus), giant foxtail (SETFA, Setaria faberi), sorghum (SORVU, Sorghum bicolor), chickweed (STEME, Stellaria media), and wild pansy (VIOTR, Viola tricolor) was evaluated.
The safener isoxadifen-ethyl was combined with compound 1, compound 2, compound 3, compound 4, compound 5, and compound 6, and applied to wheat (TRZAS), and the phytotoxicity of the herbicidal compositions was measured. […]

[12] = test system: nutsedge (CYPES, Cyperus esculentus); assay: Postemergence greenhouse trial, herbicidal efficacy on nutsedge; settings: applied alone at 35 g/ha; for % visual injury, Obs, CYPES: rated after 20-22 d; for Obs, % visual injury, CYPES: scored 20-22 d
Protocol: as §1, §2, §3

[13] = test system: corn/maize (ZEAMX), Zea mays; assay: Postemergence greenhouse trial, crop injury (phytotoxicity/safening) on corn/maize; settings: applied alone at 35 g/ha, rated after 20-22 d
Protocol: as §1
as §2, with “All herbicide application (component a) rates are in g ae/ha and all safener (component b) rates are in g ai/ha.” left out
as §3, with “Colby's equation was used to determine the herbicidal effects expected from the mixtures.” left out
as §4, with “compound” for “compound 3, compound 4, compound”, “corn/maize (ZEAMX)” for “wheat (TRZAS),”, “bicolor), and” for “bicolor),”, “media)” for “media), and wild pansy (VIOTR, Viola tricolor)”
The safener mefenpyr-diethyl was combined with compound 1, compound 2, and compound 5, and applied to corn/maize (ZEAMX) and the phytotoxicity of the herbicidal compositions were measured. […]

[14] = test system: giant foxtail (SETFA, Setaria faberi); assay: Postemergence greenhouse trial, herbicidal efficacy on giant foxtail; settings: applied alone at 35 g/ha
Protocol: as §1, §2, §3

[15] = rated after 20-22 d, read-out: % visual injury, Obs, ABUTH
[16] = scored 20-22 d, read-out: Obs, % visual injury, ABUTH
[17] = rated after 20-22 d, read-out: % visual injury, Obs, AMARE
[18] = scored 20-22 d, read-out: Obs, % visual injury, AMARE
[19] = rated after 20-22 d, read-out: % visual injury, Obs, BRSNW
[20] = scored 20-22 d, read-out: Obs, % visual injury, BRSNW
[21] = rated after 20-22 d, read-out: % visual injury, Obs, CHEAL
[22] = scored 20-22 d, read-out: Obs, % visual injury, CHEAL
[23] = rated after 20-22 d, read-out: % visual injury, Obs, CIRAR
[24] = scored 20-22 d, read-out: Obs, % visual injury, CIRAR
[25] = rated after 20-22 d, read-out: % visual injury, Obs, POLCO
[26] = scored 20-22 d, read-out: Obs, % visual injury, POLCO
[27] = rated after 20-22 d, read-out: % visual injury, Obs, STEME
[28] = scored 20-22 d, read-out: Obs, % visual injury, STEME

Compound	pest or weed control at 35 g/ha [1, 15] [%]	pest or weed control at 35 g/ha [1, 16] [%]	pest or weed control at 35 g/ha [2, 17] [%]	pest or weed control at 35 g/ha [2, 18] [%]	plant injury at 35 g/ha [3, 19] [%]	plant injury at 35 g/ha [3, 20] [%]	pest or weed control at 35 g/ha [4, 21] [%]	pest or weed control at 35 g/ha [4, 22] [%]	pest or weed control at 35 g/ha [5, 23] [%]	pest or weed control at 35 g/ha [5, 24] [%]	pest or weed control at 35 g/ha [6] [%]	Obs, % visual injury, EPHHL [6] [%]	pest or weed control at 35 g/ha [7, 25] [%]	pest or weed control at 35 g/ha [7, 26] [%]	pest or weed control at 35 g/ha [8, 27] [%]	pest or weed control at 35 g/ha [8, 28] [%]	pest or weed control at 35 g/ha [9] [%]	% visual injury, Obs, VIOTR [9] [%]	Obs, % visual injury, SORVU [10] [%]	Obs, % visual injury, TRZAS [11] [%]	other results
Nc1c(F)c(-c2ccc3cc[nH]c3c2F)nc(C(=O)O)c1Cl [compound 1]	85	85	100	100	99	99	100	100	90	90	100	100	99	99	100	100	64	64			
Nc1c(F)c(-c2ccc3cc[nH]c3c2F)nc(C(=O)OCc2ccccc2)c1Cl [compound 2]	80		100	100	100	100	97	97	70	70	100		100	100	100	100	40	40	70		
COC(=O)c1nc(-c2ccc3ccn(C(C)=O)c3c2F)c(F)c(N)c1Cl [compound 3]		50		75		30		85		50		100		97						30	
COC(=O)c1nc(-c2ccc3ccn(C(=O)C(C)C)c3c2F)c(F)c(N)c1Cl [compound 4]	80	80	100	100	97	97	97	97	75	75	100	100	100	100	93	93	60			40	% visual injury, Obs, CYPES [12]: 0%; Obs, % visual injury, CYPES [12]: 0%; % visual injury, Obs, SORVU [10]: 80%; % visual injury, Obs, ZEAMX [13]: 35%
COC(=O)c1nc(-c2ccc3ccn(C(=O)C(C)(C)C)c3c2F)c(F)c(N)c1Cl [compound 5]	80	80	100	100	97	97	100	100	80	80	100		100		85	85	40	40	60	45	% visual injury, Obs, CYPES [12]: 0%; % visual injury, Obs, SORVU [10]: 60%; % visual injury, Obs, ZEAMX [13]: 35%
CCOC(=O)c1nc(C(Cl)(Cl)Cl)n(-c2ccc(Cl)cc2Cl)n1 [fenchlorazole-ethyl, reference compound]	0	0	0	0	0	0	0	0	0	0	0	0	0	0	0	0	0		0		% visual injury, Obs, CYPES [12]: 0%; Obs, % visual injury, CYPES [12]: 0%; % visual injury, Obs, SETFA ([14]; rated after 20-22 d): 0%; Obs, % visual injury, SETFA ([14]; scored 20-22 d): 0%; % visual injury, Obs, SORVU [10]: 0%
